Reference: patent publication US8648079B2, “Heterocyclic compounds” (Takeda Pharmaceutical Company Limited, priority 2011, dated 2014)

Tests used:
human CH24H = molecular target: T1, human CH24H (Homo sapiens, UniProt Q9Y6A2); assay: Measurement of CH24H inhibitory activity (24-HC produced from [14C] cholesterol by human CH24H lysate); format: biochemical; details: 1 μM test compound, [14C] cholesterol 15 μM, 37° C., 5 hr, read-out: Inhibitory rate (%) at 1 μM
T1 construct: Using Full-Length Mammalian Gene Collection No. 4819975 (Invitrogen) as a template; made in house; host or cells: FreeStyle 293-F cells (transient transfection with pcDNA3.1(+)/hCH24H); crude lysate supernatant
Procedure: The expression of human CH24H was performed using FreeStyle 293 Expression System (Invitrogen). According to the manual attached to FreeStyle 293 Expression System and using the plasmid DNA (pcDNA3.1(+)/hCH24H) for human CH24H expression constructed in Experimental Example 1, a transient expression using FreeStyle 293-F cell was performed. After transfection, the cells were cultured with shaking at 37° C., 8% CO2, 125 rpm for 2 days. The cells were collected by centrifugation, and suspended in a buffer for suspension (100 mM potassium phosphate (pH 7.4), 0.1 mM EDTA, 1 mM DTT, 20% Glycerol). The suspended product was disrupted by a polytron homogenizer (manufactured by Kinematica), and centrifuged at 9000×g for 10 min, and the supernatant was collected. The collected supernatant was cryopreserved (−80° C.) as a human CH24H lysate standard product.
For the measurement of CH24H inhibitory activity, using the human CH24H lysate prepared in Experimental Example 2, the amount of 24-HC produced from cholesterol by catalysis of CH24H was measured in the presence of a test compound, and the amount was compared with that in the absence of the test compound. That is, a test compound solution at various concentrations were mixed with a reaction buffer (50 mM potassium phosphate containing 0.1% BSA and Complete, EDTA-free protease inhibitor cocktail, pH 7.4) and human CH24H lysate. Then, [^14C] cholesterol (53 mCi/mmol specific activity, 15 μM) was added, and CH24H reaction was performed at 37° C. for 5 hr. After completion of the reaction, a quenching solution consisting of chloroform/methanol/distillation water (2:2:1 v/v) was added, and the resulting 24-HC was extracted by shaking. The extract was applied to silica gel thin layer chromatography (ethyl acetate:toluene=4:6), and the obtained ^14C-24HC fraction was measured with BAS2500 (Fujifilm Corporation).
The inhibitory rate (%) was calculated from the ratio of radioactivity in the presence of a test compound relative to the radioactivity in the absence of the test compound.

[1] = test system: APP/PS1 double transgenic mouse; assay: Y-maze test using APP/PS1 double transgenic mouse (spontaneous alternation behavior); format: in vivo; details: Y-maze at 16 hours after the 13th administration
Procedure: Animals used were 3-month-old female APP/PS1 double transgenic mice (10-15 mice/group). A test compound was suspended in a 0.5% aqueous methylcellulose [133-14255 WAKO] solution (1 mg/mL). The body weight of the mice was measured, and the solution was forcibly administered orally and repeatedly once a day for 14 days. At 16 hours after the 13th administration, spontaneous alternation behavior in Y-maze test was evaluated. Using a particular arm of a Y-shaped test apparatus as the starting point, the frequency of moving to a different arm was counted for 5 min. The first two times of entry were excluded from the total number of entry. In addition, the mice that entered less than 10 times in total were excluded. Movement to an arm different from the arm into which the mouse entered last but one was considered an alternation behavior, and the ratio to the total number of moving was calculated as a spontaneous alternation behavior rate. As comparison subjects, a control group (test compound-non treatment group) and a control group in wild-type mice were used.

T1 sequence (Q9Y6A2 whole entry): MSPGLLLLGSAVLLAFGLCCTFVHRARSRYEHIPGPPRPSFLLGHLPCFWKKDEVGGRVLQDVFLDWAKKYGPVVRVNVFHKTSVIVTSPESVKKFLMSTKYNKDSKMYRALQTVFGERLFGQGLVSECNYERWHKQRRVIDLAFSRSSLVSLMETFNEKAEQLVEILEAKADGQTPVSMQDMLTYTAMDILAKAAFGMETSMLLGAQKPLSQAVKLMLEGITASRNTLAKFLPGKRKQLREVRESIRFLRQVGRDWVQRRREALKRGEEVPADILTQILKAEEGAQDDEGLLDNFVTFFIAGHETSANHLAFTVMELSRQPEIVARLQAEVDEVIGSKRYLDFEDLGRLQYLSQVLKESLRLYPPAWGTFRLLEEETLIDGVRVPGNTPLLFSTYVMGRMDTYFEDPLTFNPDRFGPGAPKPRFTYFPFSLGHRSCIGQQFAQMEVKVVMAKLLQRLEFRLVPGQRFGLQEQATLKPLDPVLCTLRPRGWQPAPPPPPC

inhibition at 1 µM (human CH24H) [%]	SMILES	Spontaneous alternation behavior rate (%) ([1]; 10 mg/kg orally once a day)	Spontaneous alternation behavior rate (%) ([1]; 30 mg/kg orally once a day)
92	Cn1ncc(-c2ccncc2)c1C(=O)N1CCC(O)(Cc2ccccc2)CC1 [Example 32, (4-benzyl-4-hydroxypiperidin-1-yl)(1-methyl-4-(pyridin-4-yl)-1H-pyrazol-5-yl)methanone]		
89	N#Cc1ccc(CC2(O)CCN(C(=O)c3cccnc3-c3ccncc3)CC2)cc1 [Example 70, 4-((1-(2,4′-bipyridin-3-ylcarbonyl)-4-hydroxypiperidin-4-yl)methyl)benzonitrile]		
91	O=C(c1ccc(F)cc1-c1ccncc1)N1CCC(O)(Cc2ccccn2)CC1 [Example 30, (4-fluoro-2-(pyridin-4-yl)phenyl)(4-hydroxy-4-(pyridin-2-ylmethyl)piperidin-1-yl)methanone]		
90	O=C(c1cc(F)c(F)cc1-c1ccncn1)N1CCC(O)(Cc2ccccn2)CC1 [Example 56, (4,5-difluoro-2-(pyrimidin-4-yl)phenyl)(4-hydroxy-4-(pyridin-2-ylmethyl)piperidin-1-yl)methanone]		
92	O=C(c1ccccc1-c1ccncn1)N1CCC(O)(Cc2ccccc2)CC1 [Example 14, (4-benzyl-4-hydroxypiperidin-1-yl)(2-(pyrimidin-4-yl)phenyl)methanone]		
92	O=C(c1scnc1-c1ccncc1)N1CCC(O)(Cc2ccccc2)CC1 [Example 26, (4-benzyl-4-hydroxypiperidin-1-yl)(4-(pyridin-4-yl)-1,3-thiazol-5-yl)methanone]		
95	O=C(c1cccnc1-c1ccncn1)N1CCC(O)(Cc2ccc(F)cc2F)CC1 [Example 105, (4-(2,4-difluorobenzyl)-4-hydroxypiperidin-1-yl)(2-(pyrimidin-4-yl)pyridin-3-yl)methanone]		
89	O=C(c1ccccc1-c1cnco1)N1CCC(O)(Cc2ccc(F)cc2F)CC1 [Example 102, (4-(2,4-difluorobenzyl)-4-hydroxypiperidin-1-yl)(2-(1,3-oxazol-5-yl)phenyl)methanone]		
82	Cc1nc(-c2ccncn2)c(C(=O)N2CCC(O)(Cc3ccccc3)CC2)s1 [Example 60, (4-benzyl-4-hydroxypiperidin-1-yl)(2-methyl-4-(pyrimidin-4-yl)-1,3-thiazol-5-yl)methanone]		
90	O=C(c1cccnc1-c1ccncn1)N1CCC(O)(Cc2ccccc2)CC1 [Example 54, (4-benzyl-4-hydroxypiperidin-1-yl)(2-(pyrimidin-4-yl)pyridin-3-yl)methanone]		
90	O=C(c1ccccc1-c1ccncn1)N1CCC(O)(Cc2ccccn2)CC1 [Example 34, (4-hydroxy-4-(pyridin-2-ylmethyl)piperidin-1-yl)(2-(pyrimidin-4-yl)phenyl)methanone]		
92	Cc1ccc(-c2ccncc2)c(C(=O)N2CCC(O)(Cc3ccccc3)CC2)c1 [Example 1, (4-benzyl-4-hydroxypiperidin-1-yl)(5-methyl-2-(pyridin-4-yl)phenyl)methanone]		
90	Cc1noc(-c2ccncc2)c1C(=O)N1CCC(O)(Cc2ccccc2)CC1 [Example 2, (4-benzyl-4-hydroxypiperidin-1-yl)(3-methyl-5-(pyridin-4-yl)-1,2-oxazol-4-yl)methanone]		
83	COC1(Cc2ccccc2)CCN(C(=O)c2cc(C)ccc2-c2ccncc2)CC1 [Example 59, (4-benzyl-4-methoxypiperidin-1-yl)(5-methyl-2-(pyridin-4-yl)phenyl)methanone]		
89	O=C(c1cccnc1-c1ccncc1)N1CCC(O)(Cc2ccc(F)c(F)c2)CC1 [Example 86, 2,4′-bipyridin-3-yl(4-(3,4-difluorobenzyl)-4-hydroxypiperidin-1-yl)methanone]		
94	O=C(c1ncsc1-c1ccncc1)N1CCC(O)(Cc2ccccc2)CC1 [Example 25, (4-benzyl-4-hydroxypiperidin-1-yl)(5-(pyridin-4-yl)-1,3-thiazol-4 yl)methanone]		
70	Cc1ccc(-c2ccncc2)c(C(=O)N2CCC(O)(C(C)C)CC2)c1 [Example 5, (4-hydroxy-4-isopropylpiperidin-1-yl)(5-methyl-2-(pyridin-4-yl)phenyl)methanone]		
84	O=C(c1cc(F)ccc1-c1ccncn1)N1CCC(O)(Cc2ccccn2)CC1 [Example 58, (5-fluoro-2-(pyrimidin-4-yl)phenyl)(4-hydroxy-4-(pyridin-2-ylmethyl)piperidin-1-yl)methanone]		
87	COc1ccc(CC2(O)CCN(C(=O)c3cccnc3-c3ccncc3)CC2)cc1 [Example 97, 2,4′-bipyridin-3-yl(4-hydroxy-4-(4-methoxybenzyl)piperidin-1-yl)methanone]		
82	O=C(c1ccc(F)cc1-c1ccncn1)N1CCC(O)(Cc2ccccn2)CC1 [Example 63, (4-fluoro-2-(pyrimidin-4-yl)phenyl)(4-hydroxy-4-(pyridin-2-ylmethyl)piperidin-1-yl)methanone]		
89	O=C(c1cccnc1-c1ccncc1)N1CCC(O)(Cc2ccc(F)cc2)CC1 [Example 67, 2,4′-bipyridin-3-yl(4-(4-fluorobenzyl)-4-hydroxypiperidin-1-yl)methanone]		
87	O=C(c1c(-c2ccncc2)ccc2c1OCO2)N1CCC(O)(Cc2ccccc2)CC1 [Example 9, (4-benzyl-4-hydroxypiperidin-1-yl)(5-(pyridin-4-yl)-1,3-benzodioxol-4-yl)methanone]		
90	Cc1ccc(-c2ccncc2)c(C(=O)N2CCC(O)(CC3=NCCS3)CC2)c1 [Example 39, (4-(4,5-dihydro-1,3-thiazol-2-ylmethyl)-4-hydroxypiperidin-1-yl)(5-methyl-2-(pyridin-4-yl)phenyl)methanone]		
88	O=C(c1cccnc1-c1ccncn1)N1CCC(O)(Cc2ccc(F)cc2)CC1 [Example 92, (4-(4-fluorobenzyl)-4-hydroxypiperidin-1-yl)(2-(pyrimidin-4-yl)pyridin-3-yl)methanone]	62	72
89	O=C(c1cccnc1-c1ccncc1)N1CCC(O)(Cc2ccc(F)cc2F)CC1 [Example 87, 2,4′-bipyridin-3-yl(4-(2,4-difluorobenzyl)-4-hydroxypiperidin-1-yl)methanone]		
87	O=C(c1ccccc1-c1cnco1)N1CCC(O)(Cc2ccccc2)CC1 [Example 82, (4-benzyl-4-hydroxypiperidin-1-yl)(2-(1,3-oxazol-5-yl)phenyl)methanone]		
93	O=C(c1c(C(F)(F)F)n[nH]c1-c1ccncc1)N1CCC(O)(Cc2ccccc2)CC1 [Example 41, (4-benzyl-4-hydroxypiperidin-1-yl)(5-(pyridin-4-yl)-3-(trifluoromethyl)-1H-pyrazol-4-yl)methanone]		

SMILES	inhibition at 1 µM (human CH24H) [%]	Spontaneous alternation behavior rate (%) ([1]; 10 mg/kg orally once a day)	Spontaneous alternation behavior rate (%) ([1]; 30 mg/kg orally once a day)
O=C(c1cccnc1-c1ccncc1)N1CCC(O)(Cc2ccccc2)CC1 [Example 44, (4-benzyl-4-hydroxypiperidin-1-yl)(2,4′-bipyridin-3-yl)methanone]	95	71	71
